In ChEMBL document CHEMBL1126503, “Syntheis of TRP-VAL non-cleavable dipeptide transition state isosteres” (Bioorg Med Chem Lett, 1993):
Active and inactive are the calls of the source. No cut-off for these calls is given here.

These compounds were tested on Endothelial cell (assay: Tested for inhibition of Endothelin-converting enzyme derived from bovine endothelial cell; NA means inactive uM).
Assay type: cell-based
In the case of `CCOC(=O)/C(=C/C(=O)[C@H](Cc1c[nH]c2ccccc12)NC(=O)OC(C)(C)C)C(C)C`, the inhibition was “inactive”. `COC(=O)[C@@H](NC(=O)[C@H](CC(N)=O)NC(=O)/C(=C\C(=O)[C@H](Cc1c[nH]c2ccccc12)NC(=O)OC(C)(C)C)C(C)C)C(C)C(=O)C(C)(C)C` (stereo partly drawn) was tested, and the inhibition was “inactive”. `CC(C)/C(=C/C(=O)[C@H](Cc1c[nH]c2ccccc12)NC(=O)OC(C)(C)C)C(=O)O` was tested, and the inhibition was “inactive”.
